The nature of assay [1]: inhibitors of firefly luciferase expression or activity, dose response, H4 neuroglioma cells, luminescence (AID 1990). The format is functional, cell-based.
Assay [2] concerns the target G-protein coupled receptor 55 (Homo sapiens, UniProt Q9Y2T6). The experiment in a line: GPR55 antagonists blocking LPI-driven arrestin recruitment, primary screen, imaging, U2OS, beta-arrestin-GFP, LPI agonist (AID 2013).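 Also: antagonist potency measured as reduced agonist-driven arrestin aggregation.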 It counts as functional.
A short description of assay [3]: inhibitors of intracellular T. cruzi replication, confirmation, NIH3T3 host cells, beta-gal luminescence (AID 2044).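 Also: intracellular parasites grown in NIH/3T3 mouse fibroblasts as host cells; luminescent beta-galactosidase reporter signal from transgenic T. cruzi replicating inside host cells; inhibitors lower the luminescence signal.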 It counts as functional, cell-based.
The target in assay [4] is Sphingosine 1-phosphate receptor 4 (Homo sapiens, UniProt O95977). Kind of assay: Fluorescence dose response cell-based high throughput screening assay for antagonists of the Sphingosine 1-Phosphate Receptor 4 (S1P4). [Related pubchem assays: 1524 (Confirmation in triplicates.), 1510 (Primary screen.)]. The format is functional.
In assay [5] the target is T1, RNA-binding protein pos-1 (Caenorhabditis elegans, UniProt G5EF15).
T1 sequence (G5EF15 whole entry): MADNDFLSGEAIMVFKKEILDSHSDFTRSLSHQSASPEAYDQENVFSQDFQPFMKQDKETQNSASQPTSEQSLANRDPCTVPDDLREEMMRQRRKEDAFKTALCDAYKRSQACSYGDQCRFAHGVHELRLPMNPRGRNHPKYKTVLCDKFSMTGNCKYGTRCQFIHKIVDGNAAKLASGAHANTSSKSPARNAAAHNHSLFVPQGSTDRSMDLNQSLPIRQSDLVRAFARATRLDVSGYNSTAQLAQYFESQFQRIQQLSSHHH
The experiment in a line: inhibitors of POS-1/mex-3 RNA binding, dose response, biochemical, fluorescence polarization (AID 1964).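 Also: purified POS-1 fused to maltose binding protein made in E. coli; potency of compounds blocking POS-1 binding to fluorescent RNA.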 In general terms: Fluorescence polarisation rises when a labelled molecule tumbles more slowly, as on binding a larger partner.

In assay [6] the target is G-protein coupled receptor 35 (Homo sapiens, UniProt Q9HC97). Kind of assay: GPR35 antagonists blocking zaprinast-driven arrestin recruitment, primary screen, imaging, U2OS, beta-arrestin-GFP, zaprinast agonist (AID 2058).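 Also: antagonist potency meaning inhibition of agonist-induced arrestin redistribution.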 The format is functional.
Assay [7] in a line: inhibitors of SNCA 5'UTR-driven reporter translation, confirmation, H4 neuroglioma cells, luminescence (AID 1988). The format is functional, cell-based.
For assay [8], the target named is DNA dC->dU-editing enzyme APOBEC-3A (Homo sapiens, UniProt P31941). Kind of assay: APOBEC3A DNA deaminase inhibitors, dose response, biochemical (AID 504722). It counts as functional.
Another assay deals with Vero. The experiment in a line: cells. It counts as functional. The conditions noted are these: Chlorocebus sabaeus.
In assay [9] the test system is Streptococcus sp. 'group A'. Kind of assay: growth inhibition of control SK(-) GAS strain, dose response, counter-screen for streptokinase expression inhibitor project, luminescence, kanamycin, BacTiterGlo, confirmation (AID 1900). The format is functional, organism-based. Background: Counterscreens check selectivity or assay interference.
For assay [10], the target named is DNA dC->dU-editing enzyme APOBEC-3G (Homo sapiens, UniProt Q9HC16). Kind of assay: Dose Response confirmation of small molecule APOBEC3G DNA Deaminase Inhibitors via a fluorescence-based single-stranded DNA deaminase assay. [Related pubchem assays (depositor defined):AID493012, AID493028]. The format is functional.
Assay [11] deals with RNA-editing ligase 1, mitochondrial (Trypanosoma brucei brucei, UniProt P86926). Kind of assay: TbREL1 ligase inhibitors, dose response, biochemical, fluorescence, Trypanosoma brucei (AID 1117295). It counts as functional.
In assay [12] the target is Intestinal-type alkaline phosphatase (Homo sapiens, UniProt P09923). The experiment in a line: activation of human intestinal alkaline phosphatase – biochemical, dose response (AID 488873). The format is functional.
The target in the next assay is Ephrin type-A receptor 4 (Mus musculus, UniProt Q03137). Kind of assay: inhibitors of EphA4 binding to KYL peptide, primary screen, biochemical, colorimetric, mouse EphA4 (AID 689). It counts as functional.
The target in a further assay is T2, Bcl-2-like protein 10 (Homo sapiens, UniProt Q9HD36).
T2 sequence (Q9HD36 whole entry): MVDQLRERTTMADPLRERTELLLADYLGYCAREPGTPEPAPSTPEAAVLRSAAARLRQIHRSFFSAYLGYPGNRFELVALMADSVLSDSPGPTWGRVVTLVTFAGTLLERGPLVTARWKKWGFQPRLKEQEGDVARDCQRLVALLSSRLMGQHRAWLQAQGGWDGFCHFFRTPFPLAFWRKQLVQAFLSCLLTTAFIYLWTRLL
Kind of assay: displacers of TR3 peptide from Bcl-B, primary screen, selectivity assay for Bfl-1 inhibitor project, biochemical, fluorescence polarization, FITC-TR3 peptide (AID 748).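 Also: fluorescence polarization from a fluorescein-labelled TR3 peptide binding purified Bcl-B.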

Assay [13] concerns the target Insulin-like growth factor 1 receptor (Homo sapiens, UniProt P08069). The experiment in a line: Navigating the Kinome. Panel member name: IGF1R. It counts as functional.
In assay [14] the target is Tyrosine-protein kinase Srms (Homo sapiens, UniProt Q9H3Y6). It counts as functional.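 Also: SRMS measured as one member of a kinome-wide kinase profiling panel.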
A further assay has as its target Focal adhesion kinase 1 (Homo sapiens, UniProt Q05397). It counts as functional.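 Also: measured as one member of a kinome panel.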
Assay [15] concerns the target Mast/stem cell growth factor receptor Kit (Homo sapiens, UniProt P10721). It counts as functional.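 Also: KIT entry within a kinase panel assay.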
For assay [16], the target named is Receptor tyrosine-protein kinase erbB-2 (Homo sapiens, UniProt P04626). Kind of assay: Navigating the Kinome. Panel member name: ERBB2. It counts as functional.
Assay [17] addresses Tyrosine-protein kinase ITK/TSK (Homo sapiens, UniProt Q08881). The format is functional.
The target in assay [18] is Tyrosine-protein kinase SYK (Homo sapiens, UniProt P43405). It counts as functional.
Assay [19] deals with Megakaryocyte-associated tyrosine-protein kinase (Homo sapiens, UniProt P42679). The format is functional.
Assay [20] addresses Vascular endothelial growth factor receptor 1 (Homo sapiens, UniProt P17948). It counts as functional.
Assay [21] concerns the target Serine/threonine-protein kinase Chk2 (Homo sapiens, UniProt O96017). It counts as functional.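 Also: CHEK2 entry within a kinome-wide screening panel.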
Assay [22] deals with Cell division cycle 7-related protein kinase (Homo sapiens, UniProt O00311). It counts as functional.
For assay [23], the target named is BDNF/NT-3 growth factors receptor (Homo sapiens, UniProt Q16620). It counts as functional.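 Also: NTRK2 measured as one member of a broad kinome-wide kinase profiling panel.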
For assay [24], the target named is Protein kinase C iota type (Homo sapiens, UniProt P41743). The format is functional.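 Also: measured within a kinome-wide kinase panel, PRKCI as panel member.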
In assay [25] the target is Mitogen-activated protein kinase kinase kinase kinase 2 (Homo sapiens, UniProt Q12851). The format is functional.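 Also: measured as one member of a kinome-wide kinase panel, with MAP4K2 as the panel entry.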
The subject of another assay is BJ. The experiment in a line: cells. It counts as functional, cell-based. As to conditions: Homo sapiens.
Another assay concerns the target T3, Caspase-3 (Homo sapiens, UniProt P42574).
T3 sequence (P42574 whole entry): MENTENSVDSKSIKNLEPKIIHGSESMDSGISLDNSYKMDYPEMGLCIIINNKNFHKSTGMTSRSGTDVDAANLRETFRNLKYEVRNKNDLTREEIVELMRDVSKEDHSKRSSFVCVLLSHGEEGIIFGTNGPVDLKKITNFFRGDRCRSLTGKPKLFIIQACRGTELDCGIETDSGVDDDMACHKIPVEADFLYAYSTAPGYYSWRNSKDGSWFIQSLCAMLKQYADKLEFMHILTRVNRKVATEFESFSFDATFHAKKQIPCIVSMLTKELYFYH
Kind of assay: Dose-response confirmation of uHTS inhibitor hits of Sentrin-Specific Protease 8 in a Caspase-3 Fluorescence assay. It counts as functional.

The source made the active and inactive calls.

Sequence of G-protein coupled receptor 55 (Q9Y2T6 whole entry): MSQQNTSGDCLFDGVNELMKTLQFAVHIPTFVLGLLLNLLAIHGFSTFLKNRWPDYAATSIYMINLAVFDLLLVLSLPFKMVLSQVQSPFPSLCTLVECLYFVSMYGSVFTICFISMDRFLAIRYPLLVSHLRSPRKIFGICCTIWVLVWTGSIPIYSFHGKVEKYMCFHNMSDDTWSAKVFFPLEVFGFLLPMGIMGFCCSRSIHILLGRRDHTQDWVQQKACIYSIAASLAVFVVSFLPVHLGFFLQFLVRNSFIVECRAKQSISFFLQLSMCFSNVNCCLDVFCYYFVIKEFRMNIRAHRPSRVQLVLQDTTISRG
Sequence of DNA dC->dU-editing enzyme APOBEC-3A (P31941 whole entry): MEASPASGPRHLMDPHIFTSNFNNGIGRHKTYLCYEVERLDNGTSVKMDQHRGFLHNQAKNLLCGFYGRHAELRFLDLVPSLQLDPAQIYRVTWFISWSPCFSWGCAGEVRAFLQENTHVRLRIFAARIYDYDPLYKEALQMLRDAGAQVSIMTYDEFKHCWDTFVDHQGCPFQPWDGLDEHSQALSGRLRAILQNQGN
Sequence of DNA dC->dU-editing enzyme APOBEC-3G (Q9HC16 whole entry): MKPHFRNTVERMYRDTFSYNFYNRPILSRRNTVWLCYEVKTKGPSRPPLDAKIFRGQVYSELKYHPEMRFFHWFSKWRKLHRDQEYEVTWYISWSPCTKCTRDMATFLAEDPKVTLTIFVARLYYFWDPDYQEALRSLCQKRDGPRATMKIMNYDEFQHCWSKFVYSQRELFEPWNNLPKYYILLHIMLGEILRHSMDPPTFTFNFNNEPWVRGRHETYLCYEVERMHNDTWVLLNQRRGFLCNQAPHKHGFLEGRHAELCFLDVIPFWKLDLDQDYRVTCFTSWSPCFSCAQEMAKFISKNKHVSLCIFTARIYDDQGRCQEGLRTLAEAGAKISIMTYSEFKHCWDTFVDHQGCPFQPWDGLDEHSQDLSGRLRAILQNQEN
Sequence of Megakaryocyte-associated tyrosine-protein kinase (P42679 whole entry): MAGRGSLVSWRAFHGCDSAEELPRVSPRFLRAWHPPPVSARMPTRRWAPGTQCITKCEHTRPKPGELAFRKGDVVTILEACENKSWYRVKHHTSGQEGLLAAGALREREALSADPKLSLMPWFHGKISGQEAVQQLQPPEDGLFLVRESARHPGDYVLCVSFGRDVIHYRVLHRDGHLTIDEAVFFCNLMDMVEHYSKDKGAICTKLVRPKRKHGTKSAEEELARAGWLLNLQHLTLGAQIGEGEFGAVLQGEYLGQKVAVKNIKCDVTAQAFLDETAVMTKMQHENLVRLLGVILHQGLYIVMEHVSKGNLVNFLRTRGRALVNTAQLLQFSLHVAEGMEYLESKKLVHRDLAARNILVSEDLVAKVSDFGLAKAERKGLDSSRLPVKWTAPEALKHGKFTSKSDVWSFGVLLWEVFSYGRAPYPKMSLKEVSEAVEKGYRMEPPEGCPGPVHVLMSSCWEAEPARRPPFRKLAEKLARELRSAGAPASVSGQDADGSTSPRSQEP
Sequence of Protein kinase C iota type (P41743 whole entry): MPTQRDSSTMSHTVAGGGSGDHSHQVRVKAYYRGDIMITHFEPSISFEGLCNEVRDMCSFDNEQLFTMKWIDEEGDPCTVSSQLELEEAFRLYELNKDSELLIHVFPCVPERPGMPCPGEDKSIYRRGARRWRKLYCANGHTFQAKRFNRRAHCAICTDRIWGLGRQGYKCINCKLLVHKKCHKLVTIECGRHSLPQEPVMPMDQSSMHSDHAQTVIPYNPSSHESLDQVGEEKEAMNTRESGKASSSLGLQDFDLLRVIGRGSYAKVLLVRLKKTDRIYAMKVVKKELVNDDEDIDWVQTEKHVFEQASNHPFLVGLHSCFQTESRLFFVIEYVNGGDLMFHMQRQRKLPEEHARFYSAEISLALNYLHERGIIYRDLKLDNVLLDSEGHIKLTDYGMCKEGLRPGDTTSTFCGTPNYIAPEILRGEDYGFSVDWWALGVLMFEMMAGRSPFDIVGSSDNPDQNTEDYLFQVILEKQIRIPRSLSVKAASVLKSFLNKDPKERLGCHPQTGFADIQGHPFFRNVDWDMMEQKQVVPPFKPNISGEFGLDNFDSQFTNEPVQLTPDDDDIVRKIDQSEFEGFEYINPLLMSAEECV
Sequence of Serine/threonine-protein kinase Chk2 (O96017 whole entry): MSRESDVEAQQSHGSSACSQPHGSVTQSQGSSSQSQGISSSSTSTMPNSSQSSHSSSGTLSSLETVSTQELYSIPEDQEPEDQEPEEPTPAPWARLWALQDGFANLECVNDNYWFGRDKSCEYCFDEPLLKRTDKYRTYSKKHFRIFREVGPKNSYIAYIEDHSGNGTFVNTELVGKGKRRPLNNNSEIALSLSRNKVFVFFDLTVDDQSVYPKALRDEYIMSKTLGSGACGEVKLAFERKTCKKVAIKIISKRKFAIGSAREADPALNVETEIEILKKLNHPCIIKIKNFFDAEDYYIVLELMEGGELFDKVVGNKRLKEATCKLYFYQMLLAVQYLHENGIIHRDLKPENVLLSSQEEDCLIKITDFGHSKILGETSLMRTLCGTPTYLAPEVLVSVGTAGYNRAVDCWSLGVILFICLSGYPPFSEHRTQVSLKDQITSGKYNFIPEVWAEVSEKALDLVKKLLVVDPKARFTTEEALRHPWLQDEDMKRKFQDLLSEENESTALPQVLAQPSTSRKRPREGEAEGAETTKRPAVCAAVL
Sequence of Sphingosine 1-phosphate receptor 4 (O95977 whole entry): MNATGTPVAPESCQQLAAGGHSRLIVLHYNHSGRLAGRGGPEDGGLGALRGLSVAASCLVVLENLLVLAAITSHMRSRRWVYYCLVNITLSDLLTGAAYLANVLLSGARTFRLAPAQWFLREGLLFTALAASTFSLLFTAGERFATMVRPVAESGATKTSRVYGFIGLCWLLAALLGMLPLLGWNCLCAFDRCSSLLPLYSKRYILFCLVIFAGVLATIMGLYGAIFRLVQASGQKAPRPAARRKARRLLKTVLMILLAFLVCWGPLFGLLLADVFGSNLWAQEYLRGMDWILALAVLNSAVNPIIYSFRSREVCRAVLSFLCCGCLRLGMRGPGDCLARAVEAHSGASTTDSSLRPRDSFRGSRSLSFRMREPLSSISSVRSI
Sequence of Tyrosine-protein kinase Srms (Q9H3Y6 whole entry): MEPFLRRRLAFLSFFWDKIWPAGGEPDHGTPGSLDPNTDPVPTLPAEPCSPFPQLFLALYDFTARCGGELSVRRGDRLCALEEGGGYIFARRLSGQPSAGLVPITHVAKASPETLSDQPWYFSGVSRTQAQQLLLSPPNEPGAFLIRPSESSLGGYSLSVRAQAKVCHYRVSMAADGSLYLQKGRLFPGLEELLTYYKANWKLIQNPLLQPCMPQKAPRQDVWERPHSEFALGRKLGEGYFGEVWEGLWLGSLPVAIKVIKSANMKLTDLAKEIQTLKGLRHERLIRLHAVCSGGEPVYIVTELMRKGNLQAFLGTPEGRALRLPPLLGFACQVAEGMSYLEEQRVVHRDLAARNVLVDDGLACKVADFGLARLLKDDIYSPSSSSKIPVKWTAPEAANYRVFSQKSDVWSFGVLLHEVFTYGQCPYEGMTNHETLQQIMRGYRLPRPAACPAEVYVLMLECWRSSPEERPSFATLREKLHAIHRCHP
Sequence of BDNF/NT-3 growth factors receptor (Q16620 whole entry): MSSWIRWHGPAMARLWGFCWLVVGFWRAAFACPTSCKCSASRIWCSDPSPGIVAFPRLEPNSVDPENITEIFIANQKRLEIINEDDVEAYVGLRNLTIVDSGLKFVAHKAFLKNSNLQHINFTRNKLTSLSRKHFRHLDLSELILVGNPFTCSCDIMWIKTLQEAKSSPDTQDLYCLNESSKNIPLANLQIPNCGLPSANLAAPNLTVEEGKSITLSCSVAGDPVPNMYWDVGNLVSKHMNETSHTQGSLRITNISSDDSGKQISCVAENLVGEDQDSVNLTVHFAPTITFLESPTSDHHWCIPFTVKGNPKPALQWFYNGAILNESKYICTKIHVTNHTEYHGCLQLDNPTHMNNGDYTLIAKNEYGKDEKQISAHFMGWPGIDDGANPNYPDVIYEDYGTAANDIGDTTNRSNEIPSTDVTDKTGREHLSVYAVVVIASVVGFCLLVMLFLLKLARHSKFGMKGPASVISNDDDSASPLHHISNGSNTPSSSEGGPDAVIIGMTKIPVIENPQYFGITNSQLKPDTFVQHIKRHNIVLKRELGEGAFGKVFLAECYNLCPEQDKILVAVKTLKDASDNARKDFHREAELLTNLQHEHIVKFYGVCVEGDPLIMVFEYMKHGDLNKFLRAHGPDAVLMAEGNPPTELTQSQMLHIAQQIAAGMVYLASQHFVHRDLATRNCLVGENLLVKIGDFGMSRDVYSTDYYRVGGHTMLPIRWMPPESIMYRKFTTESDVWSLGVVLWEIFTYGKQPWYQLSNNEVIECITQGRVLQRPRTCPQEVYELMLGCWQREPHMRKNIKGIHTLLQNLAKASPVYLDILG
Sequence of Tyrosine-protein kinase ITK/TSK (Q08881 whole entry): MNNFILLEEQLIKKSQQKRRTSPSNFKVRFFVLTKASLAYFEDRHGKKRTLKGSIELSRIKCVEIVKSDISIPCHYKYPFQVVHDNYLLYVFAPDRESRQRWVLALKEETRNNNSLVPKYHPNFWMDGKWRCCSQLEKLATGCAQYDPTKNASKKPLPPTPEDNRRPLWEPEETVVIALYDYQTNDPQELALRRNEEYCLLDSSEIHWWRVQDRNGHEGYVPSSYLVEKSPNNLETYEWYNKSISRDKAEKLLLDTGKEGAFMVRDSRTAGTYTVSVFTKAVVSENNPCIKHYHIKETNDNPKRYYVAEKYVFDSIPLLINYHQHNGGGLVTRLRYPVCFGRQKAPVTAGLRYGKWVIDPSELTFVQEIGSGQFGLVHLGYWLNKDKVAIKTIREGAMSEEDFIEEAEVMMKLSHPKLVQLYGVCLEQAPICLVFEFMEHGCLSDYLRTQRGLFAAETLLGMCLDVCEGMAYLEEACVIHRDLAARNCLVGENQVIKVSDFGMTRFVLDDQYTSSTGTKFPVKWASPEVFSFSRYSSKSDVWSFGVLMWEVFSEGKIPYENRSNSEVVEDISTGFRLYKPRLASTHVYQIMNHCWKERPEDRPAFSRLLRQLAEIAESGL

Take `CC(=O)N(C1=C(Cl)C(=O)c2ccccc2C1=O)C1CCCCC1`: the EC50 in [1] is 9.51 µM (active); in assay [3], 1.83 µM (active); in assay [5], 139 µM (active); in assay [7], > 120 µM (not active); in [9], 6.92 µM (active). Besides, the half-inhibitory concentration (IC50) in assay [2] is 4.55 µM (active); in assay [4], 2.03 µM (active); in [6] it was 5.55 µM (active); in [8] it was > 100 µM (inactive); in [10] it was 7.68 µM (active). Also, the CC50 with Vero was 13.3 µM (active).

As to `Oc1ccc(-c2cn3c(n2)SCC3)cc1O`, the IC50 was > 96.6 µM (inactive) in assay [11]; 42.3 µM (active) on Ephrin type-A receptor 4; > 100 µM (inactive) in assay [8]; 79.1 µM (inactive) on Bcl-2-like protein 10; 12.6 µM (active) in [10]. The EC50 in assay [12] was 22.1 µM (active); in assay [5], 3.63 µM (active).

Regarding `O=C1Nc2ccc3ncsc3c2C1=CNc1ccc(S(=O)(=O)Nc2ccccn2)cc1`, the Ki is > 2 µM (inactive) in assay [13]; > 1.58 µM (inactive) in [14]; > 1.58 µM (inactive) on Focal adhesion kinase 1; > 1.26 µM (inactive) in [15]; > 1.58 µM (inactive) in assay [16]; 0.126 µM (active) in assay [17]. The Ki in [18] was > 1.58 µM (inactive); in assay [19], 0.2 µM (active); in assay [20] it was 0.01 µM (active); in assay [21], 0.158 µM (active); in assay [22], 0.126 µM (active); in assay [23], 0.0794 µM (active). The Ki in assay [24] was > 5.01 µM (inactive); in assay [25] it was 0.00794 µM (active).

As to `Cc1ccc(NC2=C/C(=N\S(=O)(=O)c3cccs3)c3ccccc3C2=O)c(C)c1`, in assay [2], the IC50 is 1.87 µM (active). Also, the EC50 in assay [3] is 0.719 µM (active); in the assay with BJ, 4.15 µM (active); in assay [7], 8.43 µM (inconclusive); in assay [9] it was 2.99 µM (active).

Turning to `COc1ccc(/C=N/NC(=O)c2nn(-c3ccccc3)c(=O)c3c(N)scc23)cc1`, the IC50 on Caspase-3 was 2.15 µM (active).

Broadly, the EC50 is the concentration needed to bring the measured effect to its halfway point. Usually IC50 stands for the concentration needed to halve the response being measured. For orientation: CC50 means the concentration giving 50% cytotoxicity. By Ki is commonly meant a dissociation constant, usually derived from enzyme kinetics or from competition with a known ligand.
